The values that follow come from patent US10646488B2 (Araxes Pharma LLC, priority 2016, dated 2020).

Molecules are shown by their SMILES.

One experiment concerns the target T1, KRAS G12C 1-169, his-tagged protein, GDP-loaded (Homo sapiens, UniProt P01116, G12C).
T1 construct: KRAS G12C 1-169, his-tagged protein, GDP-loaded
In words: Covalent binding (% modification) to KRAS G12C by mass spectrometry. Further: test concentration or dose not given here. To be noted: covalent binding to KRAS G12C after a ten minute incubation period.
Turning to `C=CC(=O)N1C[C@H](C)N(c2nc(O)nc3c(F)c(-c4c(O)cccc4F)c(Cl)cc23)C[C@H]1C` [Compound 51, 1-((2R,5S)-4-(6-chloro-8-fluoro-7-(2-fluoro-6-hydroxyphenyl)-2-hydroxy-quinazolin-4-yl)-2,5-dimethyl-piperazin-1-yl) prop-2-en-1-one], the Binding % entry is “+ (+ indicates binding activity up to 50%)”. On the same count and under the same terms, then `C=CC(=O)N1[C@H](C)CN(c2nc(OCCN(CC)CC)nc3c(F)c(-c4c(O)cccc4F)c(Cl)cc23)C[C@@H]1C` [Compound 29, 1-((2R,6S)-4-(6-chloro-2-(2-(diethylamino)ethoxy)-8-fluoro-7-(2-fluoro-6-hydroxyphenyl)quinazolin-4-yl)-2,6-dimethyl-piperazin-1-yl) prop-2-en-1-one], with “++ (++ indicates binding activity from 50 to 90%)”; and `C=CC(=O)N1CCN(c2nc(N)nc3c(F)c(-c4cc(O)cc5ccccc45)c(Cl)cc23)[C@@H](C)C1` [Compound 12, 1-((3 S)-4-(2-Amino-6-Chloro-8-Fluoro-7-(3-Hydroxynaphthalen-1-Yl)Quinazolin-4-Yl)-3-Methylpiperazin-1-Yl)Prop-2-En-1-One], with “+++ (+++ indicates binding activity greater than 90%)”.

For `C=CC(=O)N1CCN(c2nc(N3CC(N(C)C)C3)nc3c(F)c(-c4c(O)cccc4F)c(Cl)cc23)C[C@@H]1C` [Compound 82, 1-((2S)-4-(6-chloro-2-(3-(dimethylamino)azetidin-1-yl)-8-fluoro-7-(2-fluoro-6-hydroxyphenyl)quinazolin-4-yl)-2-methyl-piperazin-1-yl) prop-2-en-1-one], the Binding % entry was “++ (++ indicates binding activity from 50 to 90%)”. In the case of `C=CC(=O)N1[C@H](C)CN(c2nc(OCCN(CC)CC)nc3c(F)c(-c4c(C)ccc5cn[nH]c45)c(Cl)cc23)C[C@@H]1C` [Compound 23, 1-((2R,6S)-4-(6-chloro-2-(2-(diethylamino)ethoxy)-8-fluoro-7-(6-methyl-1H-indazol-7-yl)quinazolin-4-yl)-2,6-dimethyl-piperazin-1-yl) prop-2-en-1-one], the Binding % result was “++ (++ indicates binding activity from 50 to 90%)”. On the same count and under the same terms, then `C=CC(=O)N1[C@H](C)CN(c2nc(OCCN3CC(F)(F)C3)nc3c(F)c(-c4c(O)cccc4F)c(Cl)cc23)C[C@@H]1C` [Compound 32, 1-((2R,6S)-4-(6-chloro-2-(2-(3,3-difluoroazetidin-1-yl)ethoxy)-8-fluoro-7-(2-fluoro-6-hydroxyphenyl)quinazolin-4-yl)-2,6-dimethyl-piperazin-1-yl) prop-2-en-1-one], with “+++ (+++ indicates binding activity greater than 90%)”. Still for that read-out and setting: then `C=CC(=O)N1C[C@H](C)N(c2nc(OCCN(CC)CC)nc3c(F)c(-c4c(O)cccc4F)c(Cl)cc23)C[C@H]1C` [Compound 48, 1-((2R,5S)-4-(6-chloro-2-(2-(diethylamino)ethoxy)-8-fluoro-7-(2-fluoro-6-hydroxyphenyl)quinazolin-4-yl)-2,5-dimethyl-piperazin-1-yl) prop-2-en-1-one], with “++ (++ indicates binding activity from 50 to 90%)”.

Still in this experiment, the particulars now being: covalent binding to KRAS G12C after a three minute incubation period.
`C=CC(=O)N1C[C@H](C)N(c2nc(N3CC4(CCN(C5CC5)C4)C3)nc3c(F)c(-c4c(C)ccc5[nH]ncc45)c(Cl)cc23)C[C@H]1C` [Compound 140, 1-((2R,5S)-4-(6-chloro-2-(6-cyclopropyl-2,6-diazaspiro[3.4]octan-2-yl)-8-fluoro-7-(5-methyl-1H-indazol-4-yl)quinazolin-4-yl)-2,5-dimethyl-piperazin-1-yl) prop-2-en-1-one]: the Binding % entry was “++ (++ indicates binding activity from 50 to 90%)”. On to `C=CC(=O)N1C[C@H](C)N(c2nc(N3CC(N(CC)C4CC4)C3)nc3c(F)c(-c4c(C)ccc5[nH]ncc45)c(Cl)cc23)C[C@H]1C` [Compound 125, 1-((2R,5S)-4-(6-chloro-2-(3-(cyclopropyl (ethyl)amino)azetidin-1-yl)-8-fluoro-7-(5-methyl-1H-indazol-4-yl)quinazolin-4-yl)-2,5-dimethyl-piperazin-1-yl) prop-2-en-1-one], for which the Binding % entry is “++ (++ indicates binding activity from 50 to 90%)”.

For the compound `C=CC(=O)N1C[C@H](C)N(c2nc(N3CC4(CCCN4C)C3)nc3c(F)c(-c4c(O)cccc4F)c(Cl)cc23)C[C@H]1C` [Compound 177, 1-((2R,5S)-4-(6-chloro-8-fluoro-7-(2-fluoro-6-hydroxyphenyl)-2-(5-methyl-2,5-diazaspiro[3.4]octan-2-yl)quinazolin-4-yl)-2,5-dimethyl-piperazin-1-yl) prop-2-en-1-one], the Binding % entry is recorded as “++ (++ indicates binding activity from 50 to 90%)”.

For `C=CC(=O)N1C[C@H](C)N(c2nc(NC3CCN(C4CC4)CC3)nc3c(F)c(-c4c(C)ccc5cn[nH]c45)c(Cl)cc23)C[C@H]1C` [Compound 145, 1-((2R,5S)-4-(6-chloro-2-((1-cyclopropyl-piperidin-4-yl)amino)-8-fluoro-7-(6-methyl-1H-indazol-7-yl)quinazolin-4-yl)-2,5-dimethyl-piperazin-1-yl) prop-2-en-1-one], the Binding % result was “++ (++ indicates binding activity from 50 to 90%)”.

On to `C=CC(=O)N1C[C@H](C)N(c2nc(N3CC(C)(N(C)C)C3)nc3c(F)c(-c4c(C)ccc5cn[nH]c45)c(Cl)cc23)C[C@H]1C` [Compound 124, 1-((2R,5S)-4-(6-chloro-2-(3-(dimethylamino)-3-methylazetidin-1-yl)-8-fluoro-7-(6-methyl-1H-indazol-7-yl)quinazolin-4-yl)-2,5-dimethyl-piperazin-1-yl) prop-2-en-1-one], for which the Binding % entry is “++ (++ indicates binding activity from 50 to 90%)”.

Consider `C=CC(=O)N1C[C@H](C)N(c2nc(N3CC4(COC4)C3)nc3c(F)c(-c4c(O)cccc4F)c(Cl)cc23)C[C@H]1C` [Compound 192, 1-((2R,5S)-4-(6-chloro-8-fluoro-7-(2-fluoro-6-hydroxyphenyl)-2-(2-oxa-6-azaspiro[3.3]heptan-6-yl)quinazolin-4-yl)-2,5-dimethyl-piperazin-1-yl) prop-2-en-1-one], for which the Binding % entry is recorded as “++ (++ indicates binding activity from 50 to 90%)”. On the same count and under the same terms, the entry for `C=CC(=O)N1C[C@H](C)N(c2nc(N3CC(N(C)C)C3)nc3c(F)c(-c4c(C)ccc5[nH]ncc45)c(Cl)cc23)C[C@H]1C` (atropisomer, axis not shown) [Compound 130, 1-((2R,5S)-4-(6-chloro-2-(3-(dimethylamino)azetidin-1-yl)-8-fluoro-7-((R)-5-methyl-1H-indazol-4-yl)quinazolin-4-yl)-2,5-dimethyl-piperazin-1-yl) prop-2-en-1-one] is “+++ (+++ indicates binding activity greater than 90%)”; for `C=CC(=O)N1C[C@H](C)N(c2nc(N3CC4(CCCN(C5CC5)C4)C3)nc3c(F)c(-c4c(C)ccc5[nH]ncc45)c(Cl)cc23)C[C@H]1C` [Compound 182, 1-((2R,5S)-4-(6-chloro-2-(6-cyclopropyl-2,6-diazaspiro[3.5]nonan-2-yl)-8-fluoro-7-(5-methyl-1H-indazol-4-yl)quinazolin-4-yl)-2,5-dimethyl-piperazin-1-yl) prop-2-en-1-one] it is “+ (+ indicates binding activity greater than 0% and up to 50%)”. On the same count and under the same terms, then `C=CC(=O)N1CCN(c2nc(N3CC(C)(N(C)C)C3)nc3c(F)c(-c4c(O)cccc4F)c(Cl)cc23)C[C@H]1C` [Compound 163, 1-((2R)-4-(6-chloro-2-(3-(dimethylamino)-3-methylazetidin-1-yl)-8-fluoro-7-(2-fluoro-6-hydroxyphenyl)quinazolin-4-yl)-2-methyl-piperazin-1-yl) prop-2-en-1-one], with “++ (++ indicates binding activity from 50 to 90%)”; and `C=CC(=O)N1C[C@H](C)N(c2nc(N3CC4(CCN4C)C3)nc3c(F)c(-c4c(O)cccc4F)c(Cl)cc23)C[C@H]1C` [Compound 184, 1-((2R,5S)-4-(6-chloro-8-fluoro-7-(2-fluoro-6-hydroxyphenyl)-2-(1-methyl-1,6-diazaspiro[3.3]heptan-6-yl)quinazolin-4-yl)-2,5-dimethyl-piperazin-1-yl) prop-2-en-1-one], with “++ (++ indicates binding activity from 50 to 90%)”; and `[2H]C([2H])([2H])N(C1CN(c2nc(N3C[C@@H](C)N(C(=O)C=C)C[C@@H]3C)c3cc(Cl)c(-c4cc(O)cc5ccccc45)c(F)c3n2)C1)C([2H])([2H])[2H]` (atropisomer, axis not shown) [Compound 229], with “+ (+ indicates binding activity greater than 0% and up to 50%)”.

In the case of `C=CC(=O)N1C[C@H](C)N(c2nc(N3CC(N(C)C)C3)nc3c(F)c(-c4c(C)ccc5[nH]ncc45)c(C(F)(F)F)cc23)C[C@H]1C` [Compound 189, 1-((2R,5S)-4-(2-(3-(dimethylamino)azetidin-1-yl)-8-fluoro-7-(5-methyl-1H-indazol-4-yl)-6-(trifluoromethyl)quinazolin-4-yl)-2,5-dimethyl-piperazin-1-yl) prop-2-en-1-one], the Binding % result is given as “+++ (+++ indicates binding activity greater than 90%)”. As to `C=CC(=O)N1C[C@H](C)N(c2nc(N3CC(N(C)C4CCC4)C3)nc3c(F)c(-c4c(O)cccc4F)c(Cl)cc23)C[C@H]1C` (atropisomer, axis not shown) [Compound 138, 1-((2R,5S)-4-(6-chloro-2-(3-(cyclobutyl (methyl)amino)azetidin-1-yl)-8-fluoro-7-((S)-2-fluoro-6-hydroxyphenyl)quinazolin-4-yl)-2,5-dimethyl-piperazin-1-yl) prop-2-en-1-one], the Binding % result is recorded as “+++ (+++ indicates binding activity greater than 90%)”. Still for that read-out and setting: then `C=CC(=O)N1C[C@@H](C)N(c2nc(N3CC(N(C)C)C3)nc3c(F)c(-c4c(O)cccc4F)c(Cl)cc23)C[C@H]1C` [Compound 86, 1-((2R,5R)-4-(6-chloro-2-(3-(dimethylamino)azetidin-1-yl)-8-fluoro-7-(2-fluoro-6-hydroxyphenyl)quinazolin-4-yl)-2,5-dimethyl-piperazin-1-yl) prop-2-en-1-one], with “+ (+ indicates binding activity greater than 0% and up to 50%)”.
